Test results: patent publication US8871681B2, “Herbicidal compositions comprising 4-amino-3-chloro-5-fluoro-6-(4-chloro-2-fluoro-3-methoxyphenyl) pyridine-2-carboxylic acid or a derivative thereof and certain sulfonylureas” (Dow AgroSciences LLC, priority 2012, dated 2014)

Test system: LEFCH (Leptochloa chinensis, Chinese sprangletop)
Experiment: In-water applied weed control, transplanted paddy rice, greenhouse (Example II)
Assay type: in vivo, Leptochloa chinensis (L.) Nees
Procedure, shortened: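 Transplanted rice and weeds at first to fourth true leaf stage in flooded mud pots (2.5–3 cm water), greenhouse ~29/26 °C day/night. Herbicides alone or mixed, in 1.25% crop oil concentrate (acetone for technical material), injected into the flood; visual 0–100% injury after ~3 weeks, expected mixture effects by Colby.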

COC(=O)c1ccccc1CS(=O)(=O)NC(=O)Nc1nc(OC)cc(OC)n1 [Bensulfuron-methyl, methyl 2-[[[[[(4,6-dimethoxy-2-pyrimidinyl)amino]carbonyl]amino]sulfonyl]methyl]benzoate, reference compound]
Visual Weed Control (%) - 19 DAA LEFCH Obs (Table 31, 70 gai/ha alone): 23%

COc1c(Cl)ccc(-c2nc(C(=O)OCc3ccccc3)c(Cl)c(N)c2F)c1F [Compound A Benzyl Ester]
Visual Weed Control (%) - 22 DAA LEFCH Obs (Table 35, 4.38 gae/ha alone): 20% | Visual Weed Control (%) - 20 DAA LEFCH Obs (Table 50, 4.38 gae/ha alone): 20%

COCC(=O)OC(c1ncccc1S(=O)(=O)NC(=O)Nc1nc(OC)cc(OC)n1)C(C)F (centres unmarked) [Flucetosulfuron, 1-[3-[[[[(4,6-dimethoxy-2-pyrimidinyl)amino]carbonyl]amino]sulfonyl]-2-pyridinyl]-2-fluoropropyl 2-methoxyacetate]
Visual Weed Control (%) - 21 DAA LEFCH Obs (Table 36, 0.1 gai/ha alone): 0% | Visual Weed Control (%) - 21 DAA LEFCH Obs (Table 36, 0.2 gai/ha alone): 0%

COc1c(Cl)ccc(-c2nc(C(=O)O)c(Cl)c(N)c2F)c1F [Compound A Acid, 4-amino-3-chloro-5-fluoro-6-(4-chloro-2-fluoro-3-methoxy-phenyl)pyridine-2-carboxylic acid]
Visual Weed Control (%) - 19 DAA LEFCH Obs (Table 31, 42 gae/ha alone): 10% | Visual Weed Control (%) - 22 DAA LEFCH Obs (Table 34, 10.6 gae/ha alone): 20% | Visual Weed Control (%) - 22 DAA LEFCH Obs (Table 34, 21.2 gae/ha alone): 40% | Visual Weed Control (%) - 22 DAA LEFCH Obs (Table 34, 42.4 gae/ha alone): 60% | Visual Weed Control (%) - 21 DAA LEFCH Obs (Table 36, 17.5 gae/ha alone): 20% | Visual Weed Control (%) - 20 DAA LEFCH Obs (Table 43, 10.6 gae/ha alone): 30% | Visual Weed Control (%) - 20 DAA LEFCH Obs (Table 43, 21.2 gae/ha alone): 20% | Visual Weed Control (%) - 20 DAA LEFCH Obs (Table 43, 42.4 gae/ha alone): 75% | Visual Weed Control (%) - 21 DAA LEFCH Obs (Table 47, 17.5 gae/ha alone): 20% | Visual Weed Control (%) - 20 DAA LEFCH Obs (Table 49, 10.6 gae/ha alone): 30% | Visual Weed Control (%) - 20 DAA LEFCH Obs (Table 49, 21.2 gae/ha alone): 20% | Visual Weed Control (%) - 20 DAA LEFCH Obs (Table 49, 42.4 gae/ha alone): 75%
